Source: patent US20150136150A1, “DURABLE SKIN MARKING COMPOSITIONS” (OP-MARKS, INC., priority 2011, published 2015)
“And” between values parts separate entries of the source, which are not always exact repeats. Equal entries are not always repeated.

system: not listed separately; assay: Colorant solubility in solvent; conditions: 10 g solvent added to 0.4 g D&C Violet #2, shaken 30 minutes, stood 30 minutes
Description: For the remaining solvents, colorant solubility was assessed in terms of the solubility of D&C Violet #2. Briefly, 10 g of each of the solvents listed in Table 5 was added to 0.4 g of dye in 12 ml test tubes. The samples were shaken for 30 minutes then allowed to stand for 30 minutes. After standing, 5 ml of the top layer was removed and weighed into pre-weighed aluminum weigh boats where the solvent was allowed to evaporate before re-weighing.

Molecule	PPM dye soluble [PPM]
C1CCCCC1 [Cyclohexane]	600
CCOC(C)=O [Ethyl acetate]	3400
CCCCCC [Hexane]	500
CC(=O)OC(C)C [t-propyl acetate]	2200

same assay, conditions: D&C Violet #2

Molecule	Dye solubility, suitability
C1CCCCC1 [Cyclohexane]	insufficient dye solubility
CCCCCC [Hexane]	insufficient dye solubility

system: not listed separately; assay: Solvent compatibility with viscosity-increasing polymer, viscosity of solution: VEE; assay type: physicochemical; parameters: unit not given here; conditions: polymer added at 5% by weight, up to 3 days agitation

Molecule	Viscosity of solution with VEE
C1CCCCC1 [Cyclohexane]	4.5
CCOCC [Diethyl ether]	1.2
CCCCCCC [Heptane]	1.5
CCCCCC [Hexane]	0.9
Cc1ccccc1 [Toluene]	3.1

system: not listed separately; assay: Solvent miscibility and compatibility with cyanoacrylate esters (overall); assay type: physicochemical; conditions: observations over 7 days
Description: (§1) Next, the solvents were tested for miscibility and compatibility with cyanoacrylate esters. Briefly, beginning with 3 ml samples each of butyl cyanoacrylate (BCA), octyl cyanoacrylate (OCA) and ethoxyethyl cyanoacrylate (EECA), 3 ml of each solvent was added drop-wise to each cyanoacrylate sample and agitated to aid mixing. Observations of the samples were taken immediately and then at regular intervals over 7 days. […] The remaining 10 solvents were ranked according to their compatibility with the cyanoacrylate esters based primarily on their compatibility with BCA over 7 days, secondarily on their compatibility with OCA, and finally on their miscibility with EECA.

Molecule	Reaction with the cyanoacrylate esters
CC(=O)C(C)C [3-Methyl 2-butanone]	apparent reactions
CC(C)=O [Acetone]	apparent reactions
C=CC(=C)C [Isoprene]	apparent reactions

system: not listed separately; assay: Solvent miscibility and compatibility with octyl cyanoacrylate; assay type: physicochemical; parameters: key: V = slightly viscous; VV = viscous; VVV = very viscous; Lyr = layers; Pl = pale; Lt = light; Y = yellow; RX = reacts; Gry = grey; Brn = brown; Blk = black; conditions: 3 ml solvent + 3 ml OCA, 1 Day
Description: as §1

Molecule	OCA compatibility, 1 Day
CC(=O)C(C)C [3-Methyl 2-butanone]	VV
CCC(C)=O [Butanone]	V
C1CCCCC1 [Cyclohexane]	V
C1CCOC1 [THF, tetrahydrofuran]	VV

same assay, conditions: 3 ml solvent + 3 ml OCA, 2 Day

Molecule	OCA compatibility, 2 Day
CC(=O)C(C)C [3-Methyl 2-butanone]	VV
CCC(C)=O [Butanone]	VV
C1CCCCC1 [Cyclohexane]	VV
CCOC(C)=O [Ethyl acetate]	V?
CCCCCCC [Heptane]	VV
C1CCOC1 [THF, tetrahydrofuran]	VV

same assay, conditions: 3 ml solvent + 3 ml OCA, 7 Day

Molecule	OCA compatibility, 7 Day
C1COCCO1 [1,4 Dioxane]	VVV
CC(=O)C(C)C [3-Methyl 2-butanone]	VV
CCC(C)=O [Butanone]	VV
C1CCCCC1 [Cyclohexane]	VV
CCOC(C)=O [Ethyl acetate]	VV
CCCCCCC [Heptane]	VV
C1CCOC1 [THF, tetrahydrofuran]	VV

system: not listed separately; assay: Solvent compatibility with viscosity-increasing polymer, viscosity of solution: CAB; assay type: physicochemical; parameters: unit not given here; conditions: polymer added at 5% by weight, up to 3 days agitation

Molecule	Viscosity of solution with CAB
C1COCCO1 [1,4 Dioxane]	6.9
CC(C)=O [Acetone]	1.8
CCC(C)=O [Butanone]	1.8
CCOC(C)=O [Ethyl acetate]	2.3
C1CCOC1 [THF, tetrahydrofuran]	3.1

system: not listed separately; assay: Solvent miscibility and compatibility with butyl cyanoacrylate; assay type: physicochemical; parameters: key: V = slightly viscous; VV = viscous; VVV = very viscous; Lyr = layers; Pl = pale; Lt = light; Y = yellow; RX = reacts; Gry = grey; Brn = brown; Blk = black; conditions: 3 ml solvent + 3 ml BCA, 1 Day
Description: as §1

Molecule	BCA compatibility, 1 Day
CC(=O)C(C)C [3-Methyl 2-butanone]	Gry
CCCCCCC [Heptane]	PlY

same assay, conditions: 3 ml solvent + 3 ml BCA, 2 Day

Molecule	BCA compatibility, 2 Day
CC(=O)C(C)C [3-Methyl 2-butanone]	Blk
CC(C)=O [Acetone]	V
CCCCCCC [Heptane]	LtY

same assay, conditions: 3 ml solvent + 3 ml BCA, 7 Day

Molecule	BCA compatibility, 7 Day
CC(=O)C(C)C [3-Methyl 2-butanone]	Blk
CC(C)=O [Acetone]	VV
CCCCCCC [Heptane]	LtY

same assay, conditions: 3 ml solvent + 3 ml BCA, time 0

Molecule	BCA compatibility, Time 0
C=CC(=C)C [Isoprene]	RX

system: not listed separately; assay: Solvent compatibility with viscosity-increasing polymer, viscosity of solution: Cap; assay type: physicochemical; conditions: polymer added at 5% by weight, up to 3 days agitation

Molecule	Viscosity of solution with Cap
Cc1ccccc1 [Toluene]	3.7

system: not given; assay: not given; conditions: at 20 ° C.; cited from earlier work

Molecule	VP (vapor pressure)
C1COCCO1 [1,4 Dioxane]	27@20 mmHg
CCCCC(CC)CO (stereo not drawn) [2-ethyl hexanol]	0.36@20^ mmHg
CC(=O)C(C)C [3-Methyl 2-butanone]	42@20 mmHg
CCCCOCCO [Butoxyethanol]	0.8@20 mmHg
C1CCCCC1 [Cyclohexane]	95@20 mmHg
CC(=O)CC(C)(C)O [Diacetone alcohol]	0.95@20^ mmHg
CC(Cl)CCl (stereo not drawn) [Dichloropropane]	40@20 mmHg
CCOCC [Diethyl ether]	440@20 mmHg
CCOCCOC(C)=O [Ethoxyethyl acetate]	2@20 mmHg
CCCCCCC [Heptane]	40@20 mmHg
CCCCCC [Hexane]	132@20 mmHg
C=CC(=C)C [Isoprene]	560@20 mmHg
COCCO [Methoxy ethanol]	6.2@20 mmHg
CC1CCCCC1 [Methyl cyclohexane]	37@20 mmHg
CC(=O)CC(C)C [Methyl isobutyl ketone]	16@20 mmHg
C[N+](=O)[O-] [Nitromethane]	28@20 mmHg
CCCOCC(C)O (stereo not drawn) [PGPE (Arcosolv)]	1.7@20 mmHg
CCCOC(C)=O [Propyl acetate]	25@20 mmHg
C1CCOC1 [THF, tetrahydrofuran]	129@20 mmHg
Cc1ccccc1 [Toluene]	22@20 mmHg
Methyl cyclohexanone	3.3@20 mmHg
Xylene	9@20 mmHg

same assay, conditions: at 25 ° C.; cited from earlier work

Molecule	VP (vapor pressure)
COCCOCCOC [2-methoxy ethyl ether]	3@25 mmHg
O=C1CCCCC1 [Cyclohexanone]	5@25 mmHg
CC(=O)OC(C)C [t-propyl acetate]	59@25 mmHg

same assay, conditions: at 37 ° C.; cited from earlier work

Molecule	VP (vapor pressure)
CC(C)C(=O)C(C)C [Diisopropyl ketone]	13.3@37^ mmHg

same assay, conditions: at 39.5 ° C.; cited from earlier work

Molecule	VP (vapor pressure)
CC(C)=O [Acetone]	400@39.5 mmHg

same assay, conditions: at 60 ° C.; cited from earlier work

Molecule	VP (vapor pressure)
CCC(C)=O [Butanone]	400@60 mmHg

same assay, conditions: at 92 ° C.; cited from earlier work

Molecule	VP (vapor pressure)
OCCOCCO [Diethylene glycol]	1@92 mmHg

system: rat; assay: not given; conditions: oral dose administered to rat; cited from earlier work

Molecule	TOX (toxicity, LD50) [mg/kg]
CC(=O)C(C)C [3-Methyl 2-butanone]	3078
CCC(C)=O [Butanone]	2737
CC(=O)CC(C)(C)O [Diacetone alcohol]	4000
CC(Cl)CCl (stereo not drawn) [Dichloropropane]	1947
CCOC(C)=O [Ethyl acetate]	5620
COCCO [Methoxy ethanol]	2370
COCC(C)O (stereo not drawn) [Methoxy propanol]	8532
CC1CCCCC1 [Methyl cyclohexane]	2250
CC(=O)CC(C)C [Methyl isobutyl ketone]	1600
CC(=O)OC(C)(C)C [t-Butyl acetate]	13400
CC(=O)OC(C)C [t-propyl acetate]	6750
Methyl cyclohexanone	2140
Xylene	3910

same assay, conditions: rat, in vivo, po; cited from earlier work

Molecule	TOX (toxicity, LD50) [mg/kg]
CCCCC(CC)CO (stereo not drawn) [2-ethyl hexanol]	3730
CCCCOC(C)=O [Butyl acetate]	10768
C1CCCCC1 [Cyclohexane]	12705
O=C1CCCCC1 [Cyclohexanone]	1000
CC(C)CC(=O)CC(C)C [Diisobutyl ketone]	5750
CC(C)C(=O)C(C)C [Diisopropyl ketone]	3536
CCOCCOC(C)=O [Ethoxyethyl acetate]	2700
CCCCCCC [Heptane]	3200
CCCCCC [Hexane]	28710
C=CC(=C)C [Isoprene]	2100
CCCOC(C)=O [Propyl acetate]	6640

system: not listed separately; assay: Solvent compatibility with viscosity-increasing polymer, viscosity of solution: IB; assay type: physicochemical; conditions: 5% by weight, up to 3 days

Molecule	Dissolution of polyisobutylene
C1CCCCC1 [Cyclohexane]	partially dissolve
CCCCCCC [Heptane]	partially dissolve

same assay, conditions: polymer added at 5% by weight, up to 3 days agitation

Molecule	Viscosity of solution with IB
C1CCCCC1 [Cyclohexane]	59
CCCCCCC [Heptane]	11
CCCCCC [Hexane]	7.7
Cc1ccccc1 [Toluene]	20

system: not listed separately; assay: Solvent compatibility with viscosity-increasing polymer, viscosity of solution: MMA; assay type: physicochemical; parameters: unit not given here; conditions: polymer added at 5% by weight, up to 3 days agitation

Molecule	Viscosity of solution with MMA
C1COCCO1 [1,4 Dioxane]	17
CC(C)=O [Acetone]	2.4
CCC(C)=O [Butanone]	4.5 and 4.2
CCOC(C)=O [Ethyl acetate]	4.7
C1CCOC1 [THF, tetrahydrofuran]	5.3

system: not given; assay: not given; conditions: relative volatility compared to butyl acetate; cited from earlier work

Molecule	VL (volatility)
C1COCCO1 [1,4 Dioxane]	2.7
CCCCC(CC)CO (stereo not drawn) [2-ethyl hexanol]	0.01
CC(=O)C(C)C [3-Methyl 2-butanone]	2.9
CC(C)=O [Acetone]	7.7
CCC(C)=O [Butanone]	2.7
CCCCOC(C)=O [Butyl acetate]	1
C1CCCCC1 [Cyclohexane]	2.6
O=C1CCCCC1 [Cyclohexanone]	0.29
CC(=O)CC(C)(C)O [Diacetone alcohol]	0.14
CC(Cl)CCl (stereo not drawn) [Dichloropropane]	−1
CCOCC [Diethyl ether]	37.5
CC(C)C(=O)C(C)C [Diisopropyl ketone]	0.17
CCOCCOC(C)=O [Ethoxyethyl acetate]	−1
CCOC(C)=O [Ethyl acetate]	6
CCCCCCC [Heptane]	4.3
C=CC(=C)C [Isoprene]	28.6
COCCO [Methoxy ethanol]	−1
COCC(C)O (stereo not drawn) [Methoxy propanol]	0.3
CC1CCCCC1 [Methyl cyclohexane]	2.99
CC(=O)CC(C)C [Methyl isobutyl ketone]	1.6
C[N+](=O)[O-] [Nitromethane]	1.39
CCCOCC(C)O (stereo not drawn) [PGPE (Arcosolv)]	0.21
CCCOC(C)=O [Propyl acetate]	3.0
C1CCOC1 [THF, tetrahydrofuran]	8
Cc1ccccc1 [Toluene]	2.24
CC(=O)OC(C)(C)C [t-Butyl acetate]	1.5
Methyl cyclohexanone	0.29
Xylene	0.7

system: not listed separately; assay: Solvent miscibility and compatibility with ethoxyethyl cyanoacrylate; assay type: physicochemical; conditions: 3 ml solvent + 3 ml EECA, 1 Day
Description: as §1

Molecule	EECA compatibility, 1 Day
CC(=O)C(C)C [3-Methyl 2-butanone]	LtBrn
C1CCCCC1 [Cyclohexane]	2Lyr
CCCCCCC [Heptane]	2Lyr
CCCCCC [Hexane]	2Lyr

same assay, conditions: 3 ml solvent + 3 ml EECA, 2 Day

Molecule	EECA compatibility, 2 Day
CC(=O)C(C)C [3-Methyl 2-butanone]	LtGry
C1CCCCC1 [Cyclohexane]	2Lyr
CCCCCCC [Heptane]	2Lyr
CCCCCC [Hexane]	2Lyr

same assay, conditions: 3 ml solvent + 3 ml EECA, 7 Day

Molecule	EECA compatibility, 7 Day
CC(=O)C(C)C [3-Methyl 2-butanone]	LtGry
C1CCCCC1 [Cyclohexane]	2Lyr
CCCCCCC [Heptane]	2Lyr
CCCCCC [Hexane]	2Lyr

same assay, conditions: 3 ml solvent + 3 ml EECA, time 0

Molecule	EECA compatibility, Time 0 [Lyr]
C1CCCCC1 [Cyclohexane]	2
CCCCCCC [Heptane]	2
CCCCCC [Hexane]	2
